The record followed here is patent publication US9895352B2, “Indolinone compounds and uses thereof” (Oncternal Therapeutics, Inc., priority 2014, dated 2018).

Several values for one entry are separate records, joined by “and”; a condition that tells them apart may be missing. Equal entries are not always repeated. Where two headings read alike, the source gives them in different places.

Data set [1] relates to SKES cells (Ewing Sarcoma cell line). Kind of data set: CCK-8 tetrazolium tumor cell growth inhibition, SKES. The data set is classed as cell-based. Particulars: Homo sapiens. How it is done:
A modified tetrazolium salt assay using the CCK-8 kit (Sigma-Aldrich; St Louis, Mo.) was used to measure the inhibition of human tumor cell growth. Tumor cells (5000-7500 per well) were added to 96 well plates and allowed to attach for 4-5 hours. Compounds were serially diluted and added in triplicate at a concentration of 0.02 to 5 μM. DMSO was included as a vehicle control. Cells were incubated in the presence of compound for 3 days. After incubation CCK-8 reagent was added to each well and incubated for 2-4 hours. Viable cells were quantitated spectrophotometrically at a wavelength of 450 nm. Percent viability of each sample was calculated from the A450 values as follows: % viability=(A450 nm sample/A450 nm DMSO-treated cells×100). […] IC50 activities of particular compounds were determined using SKES cells (Ewing Sarcoma cell line).

For data set [2] the following is noted: rat liver microsome, no cofactor, 60 min. (Microsomes from liver hold many membrane-bound enzymes, among them those of drug oxidation.)
The conditions of data set [3]: human liver microsome, no cofactor, 60 min.
For data set [4] the following is noted: mouse liver microsome, no cofactor, 60 min.
The conditions of data set [5]: dog liver microsome, no cofactor, 60 min.
The nature of data set [6]: Pharmacokinetics after IV and oral administration. Particulars: BALB/c mice or Sprague Dawley rats. The format is in vivo. How it is done:
Certain pharmacokinetics parameters were determined for certain compounds in vivo for intravenous and oral administration. Briefly, compounds were formulated and administered using IV bolus, continuous IV infusion or oral administration. Blood was collected at multiple time points over 24 hours and processed into plasma. Plasma was analyses for parent using LC/MS/MS. Certain parameters for certain compounds were obtained in duplicate.

Where [7] appears, read: 72 h, SKES cells, 3 days with compound, CCK-8 (TABLE 3).
Setting [8] is: 20 mg/kg po, labrasol/tetraglycol 9:1.
Where [9] appears, read: 20 mg/kg po, labrasol:tetraglycol:water 72:8:20.
Setting [10] is: plasma, iv, 5 mg/kg, 5 mg/kg IV, captisol.
Setting [11] is: plasma, po, 20 mg/kg, 20 mg/kg po, labrasol/tetraglycol 9:1.
[12] abbreviates: plasma, po, 20 mg/kg, 20 mg/kg po, labrasol:tetraglycol:water 72:8:20.

In the case of `CS(=O)(=O)c1ccc(C(=O)CC2(O)C(=O)Nc3c(Cl)ccc(Cl)c32)cc1` (racemic) [Cmpd 4, 4,7-Dichloro-3-hydroxy-3-(2-(4-(methylsulfonyl)phenyl)-2-oxoethyl)indolin-2-one], the IC50 (as a rule, the concentration that inhibits the measured activity by half) in data set [1] (setting [7]) is over 5 µM; in data set [1] (SKES, ES, EWS-FLI1 Type 2), over 5 µM.

Take `O=C(CC1(O)C(=O)Nc2c(Cl)ccc(Cl)c21)c1ccc(N2CC2)cc1` (racemic) [Cmpd 8, 3-(2-(4-(Aziridin-1-yl)phenyl)-2-oxoethyl)-4,7-dichloro-3-hydroxyindolin-2-one]: the IC50 in data set [1] (setting [7]) was under 5 µM; in data set [1] (SKES, ES, EWS-FLI1 Type 2) it was under 5 µM.

On to `CC(C)c1ccc(C(=O)CC2(O)C(=O)Nc3c(Cl)ccc(Cl)c32)cc1` (racemic) [Cmpd 9, 4,7-Dichloro-3-hydroxy-3-(2-(4-isopropylphenyl)-2-oxoethyl)indolin-2-one], for which the IC50 is over 5 µM in data set [1] (setting [7]) and over 5 µM in data set [1] (SKES, ES, EWS-FLI1 Type 2).

With `O=C(CC1(O)C(=O)Nc2c(Cl)ccc(Cl)c21)c1ccc(-n2cccn2)cc1` (racemic) [Cmpd 16, 3-(2-(4-(1H-Pyrazol-1-yl)phenyl)-2-oxoethyl)-4,7-dichloro-3-hydroxyindolin-2-one], the IC50 in data set [1] (setting [7]) was over 5 µM; in data set [1] (SKES, ES, EWS-FLI1 Type 2), over 5 µM.

With `NS(=O)(=O)c1ccc(C(=O)CC2(O)C(=O)Nc3c(Cl)ccc(Cl)c32)cc1` (racemic) [Cmpd 20, 4-(2-(4,7-Dichloro-3-hydroxy-2-oxoindolin-3-yl)acetyl)benzenesulfonamide], the IC50 is over 5 µM in data set [1] (setting [7]) and over 5 µM in data set [1] (SKES, ES, EWS-FLI1 Type 2).

Regarding `O=C(CC1(O)C(=O)Nc2c(Cl)ccc(Cl)c21)c1ccc(N2CCCC2)c(F)c1` (racemic) [Cmpd 21, 4,7-Dichloro-3-(2-(3-fluoro-4-(pyrrolidin-1-yl)phenyl)-2-oxoethyl)-3-hydroxyindolin-2-one], the IC50 was over 5 µM in data set [1] (setting [7]) and over 5 µM in data set [1] (SKES, ES, EWS-FLI1 Type 2).

As to `O=C(CC1(O)C(=O)Nc2c(Cl)ccc(Cl)c21)c1ccc(N2CCC2)cc1` (racemic) [Cmpd 22, 3-(2-(4-(Azetidin-1-yl)phenyl)-2-oxoethyl)-4,7-dichloro-3-hydroxyindolin-2-one], the IC50 was under 5 µM in data set [1] (setting [7]) and under 5 µM in data set [1] (SKES, ES, EWS-FLI1 Type 2).

As to `COC1CCC(C(=O)CC2(O)C(=O)Nc3c(Cl)ccc(Cl)c32)CC1` (racemic) [Cmpd 23, 4,7-Dichloro-3-hydroxy-3-(2-(4-methoxycyclohexyl)-2-oxoethyl)indolin-2-one], the IC50 in data set [1] (setting [7]) is over 5 µM; in data set [1] (SKES, ES, EWS-FLI1 Type 2), over 5 µM.

For the compound `COC12CCC(C(=O)CC3(O)C(=O)Nc4c(Cl)ccc(Cl)c43)(CC1)CC2` (racemic) [Cmpd 24, 4,7-Dichloro-3-hydroxy-3-(2-(4-methoxybicyclo[2.2.2]octan-1-yl)-2-oxoethyl)indolin-2-one], the IC50 in data set [1] (setting [7]) was over 5 µM; in data set [1] (SKES, ES, EWS-FLI1 Type 2), over 5 µM.

Regarding `CN(C)C12CCC(C(=O)CC3(O)C(=O)Nc4c(Cl)ccc(Cl)c43)(CC1)CC2` (racemic) [Cmpd 25, 4,7-Dichloro-3-(2-(4-(dimethylamino)bicyclo[2.2.2]octan-1-yl)-2-oxoethyl)-3-hydroxyindolin-2-one], the IC50 is over 5 µM in data set [1] (setting [7]) and over 5 µM in data set [1] (SKES, ES, EWS-FLI1 Type 2).

As for `O=C(CC1(O)C(=O)Nc2c(Cl)ccc(Cl)c21)c1ccc(C2CC2)c(F)c1` (racemic) [Cmpd 26, 4,7-Dichloro-3-(2-(4-cyclopropyl-3-fluorophenyl)-2-oxoethyl)-3-hydroxyindolin-2-one], the IC50 is under 5 µM in data set [1] (setting [7]) and under 5 µM in data set [1] (SKES, ES, EWS-FLI1 Type 2).

`O=C(CC1(O)C(=O)Nc2c(Cl)ccc(Cl)c21)c1ccc(C2CC2)cc1F` (racemic) [Cmpd 27, 4,7-Dichloro-3-(2-(4-cyclopropyl-2-fluorophenyl)-2-oxoethyl)-3-hydroxyindolin-2-one]: the IC50 in data set [1] (setting [7]) is under 5 µM; in data set [1] (SKES, ES, EWS-FLI1 Type 2) it was under 5 µM.

As to `O=C(CC1(O)C(=O)Nc2c(Cl)ccc(Cl)c21)c1ccc(N2CCOCC2)cc1` (racemic) [Cmpd 29, 4,7-dichloro-3-hydroxy-3-(2-(4-moprholinophenyl)-2-oxoethyl)indolin-2-one], the IC50 was over 5 µM in data set [1] (setting [7]) and over 5 µM in data set [1] (SKES, ES, EWS-FLI1 Type 2).

As to `O=C(CC1(O)C(=O)Nc2c(Cl)ccc(Cl)c21)c1ccncc1` (racemic) [Cmpd 30, 4,7-dichloro-3-hydroxy-3-(2-oxo-2-(pyridin-4-yl)ethyl)indolin-2-one], the IC50 in data set [1] (setting [7]) is over 5 µM; in data set [1] (SKES, ES, EWS-FLI1 Type 2) it was over 5 µM.

For `O=C(CC1(O)C(=O)Nc2c(Cl)ccc(Cl)c21)c1cccnc1` (racemic) [Cmpd 31, 4,7-dichloro-3-hydroxy-3-(2-oxo-2-(pyridin-3-yl)ethyl)indolin-2-one], the IC50 in data set [1] (setting [7]) is over 5 µM; in data set [1] (SKES, ES, EWS-FLI1 Type 2) it was over 5 µM.

As to `O=C(CC1(O)C(=O)Nc2c(Cl)ccc(Cl)c21)c1ccccn1` (racemic) [Cmpd 32, 4,7-dichloro-3-hydroxy-3-(2-oxo-2-(pyridin-2-yl)ethyl)indolin-2-one], the IC50 in data set [1] (setting [7]) is over 5 µM; in data set [1] (SKES, ES, EWS-FLI1 Type 2), over 5 µM.

Turning to `NC(=O)c1ccc(C(=O)CC2(O)C(=O)Nc3c(Cl)ccc(Cl)c32)cc1` (racemic) [Cmpd 33, 4-(2-(4,7-dichloro-3-hydroxy-2-oxoindolin-3-yl)acetyl)benzamide], the IC50 in data set [1] (setting [7]) is over 5 µM; in data set [1] (SKES, ES, EWS-FLI1 Type 2) it was over 5 µM.

Consider `O=C(CC1(O)C(=O)Nc2c(Cl)ccc(Cl)c21)c1ccc(O)cc1` (racemic) [Cmpd 34, 4,7-dichloro-3-hydroxy-3-(2-(4-hydroxyphenyl)-2-oxoethyl)indolin-2-one], for which the IC50 in data set [1] (setting [7]) was over 5 µM; in data set [1] (SKES, ES, EWS-FLI1 Type 2), over 5 µM.

`O=C(CC1(O)C(=O)Nc2c(Cl)ccc(Cl)c21)c1ccc(F)c(F)c1` (racemic) [Cmpd 35, 4,7-dichloro-3-(2-(3,4-difluorophenyl)-2-oxoethyl)-3-hydroxyindolin-2-one]: the IC50 in data set [1] (setting [7]) was over 5 µM; in data set [1] (SKES, ES, EWS-FLI1 Type 2), over 5 µM.

As for `COc1ccc(C(=O)CC2(O)C(=O)Nc3c(Cl)ccc(Cl)c32)cc1` (single isomer, unassigned) [Cmpd 3, 4,7-Dichloro-3-hydroxy-3-[2-(4-methoxyphenyl-2-oxoethyl)]-1,3-dihydroindol-2-one], the “Remaining (NCF = 60 min)” value in data set [2] turned out to be 92.6%; in data set [3], 112.6%; in data set [4], 97.5%; in data set [5] it was 100.1%.

Turning to `CNc1ccc(C(=O)CC2(O)C(=O)Nc3c(Cl)ccc(Cl)c32)cc1` (single isomer, unassigned) [Cmpd 5, 4,7-dichloro-3-hydroxy-3-[2-[4-(methylamino)phenyl]-2-oxoethyl]-1H-indol-2-one], the AUC was 2324 h * (ng/mL) and 3207 h * (ng/mL) in data set [6] (5 mg/kg IV, captisol); 5192 h * (ng/mL) and 4939 h * (ng/mL) in data set [6] (setting [8]); 4354 h * (ng/mL) and 4081 h * (ng/mL) in data set [6] (setting [9]). Moreover, the Tmax (as a rule, the time from dosing to the highest level) in data set [6] (setting [8]) came to 0.5 h; in data set [6] (setting [9]) it was 0.5 h; in data set [6] (plasma, iv, 5 mg/kg, 5 mg/kg IV, captisol, read-out: Tmax), 0.033 h; in data set [6] (plasma, po, 20 mg/kg, 20 mg/kg po, labrasol/tetraglycol 9:1, read-out: Tmax) it was 1 h; in data set [6] (plasma, po, 20 mg/kg, 20 mg/kg po, labrasol:tetraglycol:water 72:8:20, read-out: Tmax), 1 h. In data set [6] (setting [9]), the “% F” value was determined as 39%. Moreover, the Cmax (commonly the highest concentration seen after dosing) was found to be 13000 ng/mL in data set [6] (setting [10]), 2180 ng/mL in data set [6] (setting [11]) and 1570 ng/mL in data set [6] (setting [12]). Further, the half-life (as a rule, the time in which the quantity being followed falls by half) was 1.7 h in data set [6] (setting [10]), 3.1 h in data set [6] (setting [11]) and 2.8 h in data set [6] (setting [12]). Besides, the bioavailability (usually the share of a dose that reaches the circulation, judged against a reference dose that is usually intravenous) in data set [6] (setting [11]) came out at 56%; in data set [6] (setting [12]), 47%.

In the case of `O=C(CC1(O)C(=O)Nc2c(Cl)ccc(Cl)c21)c1ccc(C2CC2)c(F)c1` (single isomer, unassigned) [Cmpd 36, 4,7-Dichloro-3-(2-(4-cyclopropyl-3-fluorophenyl)-2-oxoethyl)-3-hydroxyindolin-2-one], the “Remaining (NCF = 60 min)” value in data set [3] was determined as 104.0%.

`O=C(CC1(O)C(=O)Nc2c(Cl)ccc(Cl)c21)c1ccc(C2CC2)cc1F` (single isomer, unassigned) [Cmpd 38, 4,7-Dichloro-3-(2-(4-cyclopropyl-2-fluorophenyl)-2-oxoethyl)-3-hydroxyindolin-2-one]: in data set [3], the “Remaining (NCF = 60 min)” value came to 99.5%.

Regarding `O=C(CC1(O)C(=O)Nc2c(Cl)ccc(Cl)c21)c1ccc(N2CCCC2)cc1` (stereo not drawn) [Cmpd 17, 4,7-Dichloro-3-hydroxy-3-(2-oxo-2-(4-(pyrrolidin-1-yl)phenyl)ethyl)indolin-2-one], the IC50 in data set [1] (setting [7]) was over 5 µM; in data set [1] (SKES, ES, EWS-FLI1 Type 2), over 5 µM.
